Experimental findings from PMC4942819 (Scientific Reports, 2016) are described below.

In brackets after ≈: the same amount, converted by molar mass. Like-named read-outs stand apart in the source and are kept apart here.

In general, IC50 refers to the midpoint of a concentration-inhibition curve.

In one assay the test system is XDR-TB clinical isolates. Put plainly: microbe, parasite or virus in culture. The format is cell-based, Mycobacterium tuberculosis. The conditions noted are these: for MIC, XDR-TB strain X15 / MIC, XDR-TB strain X17: clinical isolate, Table 2 prints no unit, test range 0.0156 to 64 μg/mL; for MIC: Mycobacterium tuberculosis.
The subject of the next assay is MDR-TB clinical isolates. Put plainly: microbe, parasite or virus in culture. The format is cell-based. Particulars: Mycobacterium tuberculosis.
The next assay deals with Vero cells. Put plainly: cytotoxicity, MTT assay. In kind it is cell-based. Particulars: Chlorocebus sabaeus, Vero; cytotoxicity; read-out: IC50 Vero. The method, then: The compounds were examined for toxicity (IC50) using MTT assay. Briefly, cells (3 ~ 5 × 10^3 cells/well) were seeded in a 96-well plate. After 24 h incubation, the cells were treated with various concentrations of drugs for 24, 48, 72 h, respectively. Columns one and two in the assay plates contained-media +0.1% DMSO for a negative control ,Then, 20 μl of a 5 mg/mL MTT solution was added to each well, and the plates were incubated for an additional 2~4 h at 37 °C. The medium was subsequently discarded, and DMSO 150 μL was added to dissolve the formazan. Oscillate 15 min, the OD 570 was measured using a Spectra MAX M5 microplate spectrophotometer (Molecular Devices, CA, USA), and the IC50 values were calculated.
Compound MIC was conducted by ShangHai Chempartner Co., Ltd (Shanghai, China) using the microplate Alamar Blue assay (MABA) against Mycobacterium tuberculosis H37Ra (ATCC 25177). Cytotoxicity of tested compounds was assessed on Vero cells.
(In general: Tetrazolium dyes change colour on reduction, which living cells bring about.)

The subject of assay [1] is Mycobacterium tuberculosis Erdman. The assay can be described thus: microplate Alamar blue assay (MABA), MIC. The format is cell-based.
Assay [2] concerns Mycobacterium tuberculosis H37Rv. Put plainly: microplate Alamar blue assay (MABA), MIC. The format is cell-based. The conditions noted are these: replicating H37Rv.
For the next assay, the system named is M. tuberculosis H37Rv. The assay can be described thus: MABA checkerboard synergy assay. The format is cell-based, Mycobacterium tuberculosis. The conditions noted are these: for MIC: Mycobacterium tuberculosis, H37RV, 336 h, checkerboard, drug alone, read-out: MIC against H37Rv, MIC alone.
The subject of assay [3] is M. tuberculosis Erdman in J774A.1 cells. The assay can be described thus: macrophage assay, intracellular activity. In kind it is cell-based, Mycobacterium tuberculosis. As for the experimental part: As described previously, J774A.1 cells were grown in 75-cm2 cell culture flasks in 10% FBS in Dulbecco’s modified Eagle’s medium (DMEM) until confluency. The cells were detached using a cell scraper, and then centrifuged at 200 g for 5 min at room temperature. The cells were incubated at 37 °C under 5% CO2 for 16 h after distributing into 24-well plates containing coverslips. M. tuberculosis Erdman (ATCC 35801) were diluted to a final concentration of 1 × 10^5 to 3 × 10^5 CFU/mL with DMEM after thawing and sonicating from frozen cultures. And 500 ul of the dilution was dispensed to each well of a new 24-well plate. Followed by, J774A.1 cells on coverslips were infected by incubation with M. tuberculosis Erdman at 37 °C for 2 h. Coverslips were then washed with HBSS and transferred to new 24-well plates. The Cultures were treated in triplicate with compounds at 0.02 μM containing DMEM and incubated at 37 °C under 5% CO2 for 16 h. At D 0 (for untreated controls) and after 7 days of incubation, macrophage cells were lysed by addition of 200 μL of 0.25% sodium dodecyl sulfate. The plates were incubated at 37 °C for 10 min, and 200 μL of DMEM was added. The lysate was sampled using a microtube and sonicated for 15 s. Then 1:1, 1:10, 1:100, and 1:1,000 dilutions were plated on 7H11 agar plates and CFU counts determined after 2 to 3 weeks of incubation at 37 °C.

Another assay concerns M. tuberculosis Erdman. The assay can be described thus: in vivo acute M.tb Erdman infection mouse model. Set-up: species or system Mycobacterium tuberculosis. Particulars: BALB/c mice.
Another assay has as its system Mycobacterium avium. The assay can be described thus: microdilution plate assay, MIC. In kind it is cell-based.
Setting [4] is: read-out: MIC, MDR-TB strain M3.
The mark [5] stands for this setting: read-out: MIC, MDR-TB strain M4.
The mark [6] stands for this setting: read-out: MIC, MDR-TB strain M8.
The mark [7] stands for this setting: read-out: MIC, MDR-TB strain M18.
Where [8] appears, read: read-out: MIC, XDR-TB strain X15.
The mark [9] stands for this setting: read-out: MIC, XDR-TB strain X17.

In the case of `NC[C@H]1O[C@H](O[C@H]2[C@H](O)[C@@H](O[C@H]3O[C@H](CO)[C@@H](O)[C@H](N)[C@H]3O)[C@H](N)C[C@@H]2N)[C@H](O)[C@@H](O)[C@@H]1O` [KM, kanamycin], in the assay with XDR-TB clinical isolates, the “MIC, XDR-TB strain X15” value stood at 64 µg/mL (≈ 132 µM) and the “MIC, XDR-TB strain X17” value stood at 64 µg/mL (≈ 132 µM).

Regarding `CC[C@@H](CO)NCCN[C@@H](CC)CO` [EMB, ethambutol], the MIC in the assay with MDR-TB clinical isolates (setting [4]) was 4 µg/mL (≈ 19.6 µM); in the assay with MDR-TB clinical isolates (setting [5]), 2 µg/mL (≈ 9.79 µM); in the assay on MDR-TB clinical isolates (setting [6]) it was 4 µg/mL (≈ 19.6 µM); in the assay on MDR-TB clinical isolates (setting [7]), 8 µg/mL (≈ 39.2 µM); in the assay on XDR-TB clinical isolates (setting [8]), 16 µg/mL (≈ 78.3 µM); in the assay with XDR-TB clinical isolates (setting [9]) it was 16 µg/mL (≈ 78.3 µM).

As for `O=c1nc(N2CCN(CC3CCCCC3)CC2)sc2c([N+](=O)[O-])cc(C(F)(F)F)cc12` [PBTZ169], the IC50 with Vero cells is more than 100 µg/mL. Besides, the MIC in assay [1] is not above 0.05 µg/mL; in [2] it was 0.02 µg/mL (≈ 0.0438 µM).

Turning to `CC(=O)NC[C@H]1CN(c2ccc(N3CCOCC3)c(F)c2)C(=O)O1` [LZD, Linezolid], the MIC in the assay on M. tuberculosis H37Rv is 0.145 µg/mL. In addition, the “MIC against H37Rv, MIC in combo.” value in the assay on M. tuberculosis H37Rv (in combination with TB1001) stood at 0.1 µg/mL.

`C[C@H]1COc2c(N3CCN(C)CC3)c(F)cc3c(=O)c(C(=O)O)cn1c23` [LVFX, levo-ofloxacin]: in the assay with XDR-TB clinical isolates, the “MIC, XDR-TB strain X15” value came to 4 µg/mL (≈ 11.1 µM) and the “MIC, XDR-TB strain X17” value worked out at 32 µg/mL (≈ 88.6 µM).

With `CO[C@H]1/C=C/O[C@@]2(C)Oc3c(C)c(O)c4c(O)c(c(/C=N/N5CCN(C)CC5)c(O)c4c3C2=O)NC(=O)/C(C)=C\C=C\[C@H](C)[C@H](O)[C@@H](C)[C@@H](O)[C@@H](C)[C@H](OC(C)=O)[C@@H]1C` [RMP, rifampicin], the MIC in the assay with MDR-TB clinical isolates (setting [4]), with MDR-TB clinical isolates (setting [5]), in the assay with MDR-TB clinical isolates (setting [6]), with MDR-TB clinical isolates (setting [7]), in the assay on XDR-TB clinical isolates (setting [8]) and in the assay with XDR-TB clinical isolates (setting [9]) was 64 µg/mL (≈ 77.8 µM) in each case. In [3] (J774A.1 macrophages, 0.02 μM (Fig. 2 legend: 0.02 μg/mL), 7 days), the “Log10 CFU, intracellular Mtb Erdman” value is reported as 6.44. For the same compound, in assay [3] (decrease of log10 CFU between D7 and treatment group, J774A.1, 0.02 μM (Fig. 2 legend: 0.02 μg/mL)), the “Fold(log) reduction” value is recorded as 0.41 log. Further, the “MIC against H37Rv, MIC in combo.” value was determined as 0.007 µg/mL in the assay on M. tuberculosis H37Rv (in combination with BTZ043) and 0.001 µg/mL with M. tuberculosis H37Rv (in combination with TB1001). For the same compound, the “decrease of MIC” value in the assay with M. tuberculosis H37Rv (in the presence of SKLB-TB1001) was 6 fold. Besides, in the assay on M. tuberculosis Erdman (15 mg/kg oral), the “reduction of bacterial concentration in lungs compared to vehicle control group” value was 2.5 logs. In the assay with M. tuberculosis Erdman (Day-36, 15 mg/kg oral daily from day 10), the “Log10 CFU (SD), bacterial burden in mouse lungs” value was 3.73 (3.19).

Take `NNC(=O)c1ccncc1` [INH, isoniazid]: the MIC turned out to be 16 µg/mL (≈ 117 µM) against Mycobacterium avium; 8 µg/mL (≈ 58.3 µM) with MDR-TB clinical isolates (setting [4]); 1 µg/mL (≈ 7.29 µM) in the assay on MDR-TB clinical isolates (setting [5]); 4 µg/mL (≈ 29.2 µM) in the assay on MDR-TB clinical isolates (setting [6]); 1 µg/mL (≈ 7.29 µM) in the assay on MDR-TB clinical isolates (setting [7]); 0.03 µg/mL in the assay on M. tuberculosis H37Rv. Moreover, the MIC in the assay with XDR-TB clinical isolates (setting [8]) came out at 16 µg/mL (≈ 117 µM); in the assay with XDR-TB clinical isolates (setting [9]), 1 µg/mL (≈ 7.29 µM); in assay [2] it was 0.47 µg/mL (≈ 3.43 µM). The IC50 in the assay with Vero cells was more than 100 µg/mL. Also, in the assay on M. tuberculosis H37Rv (in combination with TB1001), the “MIC against H37Rv, MIC in combo.” value came out at 0.01 µg/mL.

On to `NCC[C@H](O)C(=O)N[C@@H]1C[C@H](N)[C@@H](O[C@H]2O[C@H](CN)[C@@H](O)[C@H](O)[C@H]2O)[C@H](O)[C@H]1O[C@H]1O[C@H](CO)[C@@H](O)[C@H](N)[C@H]1O` [AMK, amikacin], for which the MIC in the assay with XDR-TB clinical isolates (setting [8]) and in the assay with XDR-TB clinical isolates (setting [9]) was 64 µg/mL (≈ 109 µM) in each case.

For the compound `CC1COc2c(N3CCN(C)CC3)c(F)cc3c(=O)c(C(=O)O)cn1c23` (stereo not drawn) [OFLX, ofloxacin], the values for the MIC with XDR-TB clinical isolates (setting [8]) and in the assay with XDR-TB clinical isolates (setting [9]) were 8 µg/mL (≈ 22.1 µM) and 32 µg/mL (≈ 88.6 µM), respectively.

With `[H]/N=C(/N)N[C@H]1[C@H](O)[C@@H](O)[C@H](O[C@@H]2O[C@@H](C)[C@](O)(C=O)[C@H]2O[C@@H]2O[C@@H](CO)[C@H](O)[C@@H](O)[C@@H]2NC)[C@@H](N/C(N)=N\[H])[C@@H]1O` [SM, streptomycin], the MIC in the assay with MDR-TB clinical isolates (setting [4]) is 64 µg/mL (≈ 110 µM); in the assay with MDR-TB clinical isolates (setting [5]) it was 8 µg/mL (≈ 13.8 µM); in the assay on MDR-TB clinical isolates (setting [6]), 64 µg/mL (≈ 110 µM); in the assay with MDR-TB clinical isolates (setting [7]), 64 µg/mL (≈ 110 µM); in the assay on XDR-TB clinical isolates (setting [8]), 8 µg/mL (≈ 13.8 µM); in the assay with XDR-TB clinical isolates (setting [9]) it was 64 µg/mL (≈ 110 µM).

Take `COc1c(N2C[C@@H]3CCCN[C@@H]3C2)c(F)cc2c(=O)c(C(=O)O)cn(C3CC3)c12` [MOX, moxifloxacin]: the MIC with M. tuberculosis H37Rv worked out at 0.037 µg/mL. Moreover, the “MIC against H37Rv, MIC in combo.” value in the assay with M. tuberculosis H37Rv (in combination with TB1001) was determined as 0.021 µg/mL.
